{"source": "paper PMC6702328", "about": "“A VDAC1-Derived N-Terminal Peptide Inhibits Mutant SOD1-VDAC1 Interactions and Toxicity in the SOD1 Model of ALS” (Frontiers in Cellular Neuroscience, 2019)", "key": {"[1]": {"system": "NSC-34 cells", "test": "Cell death, PI staining and flow cytometry, NSC-34", "format": "cell-based, mouse", "details": "5 h, serum-free medium, 37°C", "protocol": "(§1) NSC-34 cells, a mouse motor neuron-like hybrid cell line, the A549 human lung adenocarcinoma and U-87MG human glioblastoma cell lines were incubated with the (1-26)N-Ter-Antp, D-(15-26)N-Ter-Antp, (1-20)N-Ter-Antp, (5-20)N-Ter-Antp, or (10-20)N-Ter-Antp peptides in the appropriate serum-free growth medium for 5 h at 37°C. Cells were harvested, and analyzed for cell death using propidium iodide (PI) staining and flow cytometry. For XTT, the CellTiter 96 AQueous one-solution cell proliferation assay was used to follow cell viability as described previously ([Leyton-Jaimes et al., 2016]).\n(§2) NSC-34 (A), U-87MG (B), or A549 (C) cells were incubated with the indicated concentrations of (1-26)N-Ter-Antp (∙), D-(15-26) (19-26)N-Ter-Antp (▲), (1-20)N-Ter-Antp (∘), (5-20)N-Ter-Antp (□) or (10-20)N-Ter-Antp (◆) peptide for 5 h. Cell death was analyzed using PI staining and flow cytometry. […] Cell viability analysis was performed with the CellTiter 96 AQueous one-solution cell proliferation assay with ELISA at 490 nm. […] The significance of quantitative analysis of triplicates of different biological repeats (n = 3) was performed by Student’s t-test; ^∗∗P < 0.01. […] Twenty-four hours post-transfection, the cells were incubated for 5 h with (10-20)N-Ter-Antp peptide (20 μM) and then analyzed for apoptosis using acridine orange and ethidium bromide staining, as described previously ([McGahon et al., 1995]). Fluorescence microscopy images were analyzed and about 100 to 300 cells were counted for each treatment in representative microscopic fields. The significance of quantitative analysis of triplicates of different biological repeats (n = 3) was performed by one-way Anova; ^∗∗P < 0.01."}, "[2]": {"system": "U-87MG cells", "test": "Cell death, PI staining and flow cytometry, U-87MG", "format": "cell-based, human", "details": "5 h, serum-free medium, 37°C", "protocol": "as §1, §2"}, "[3]": {"system": "A549 cells", "test": "Cell death, PI staining and flow cytometry, A549", "format": "cell-based, human", "details": "5 h, serum-free medium, 37°C", "protocol": "as §1, §2"}, "[4]": {"system": "NSC-34 cells transfected to express human mutant SOD1^G93A", "test": "Rescue of mutant SOD1^G93A toxicity, cell viability (XTT / CellTiter 96 AQueous)", "format": "cell-based, mouse", "details": "NSC-34 cells expressing SOD1^G93A, increasing peptide concentrations, 5 h, XTT assay; n = 3", "protocol": "as §1, §2\nCell viability was quantified using the XTT assay and apoptosis using acridine orange and ethidium bromide staining. […] Importantly, this effect was observed using the three non-cell death-inducing VDAC1-derived N-terminal peptides, i.e., the (1-20)-N-Ter-Antp, (5-20)-N-Ter-Antp and (10-20)-N-Ter-Antp peptides."}, "[5]": {"system": "SOD1^G93A-expressing mESC-derived MNs", "test": "Neurite outgrowth of mESC-derived motor neurons", "format": "cell-based, mouse", "details": "10 μM, first 24 h; mean ± SEM n = 3, P < 0.05", "protocol": "(§3) This cell line carries green fluorescent protein (GFP) under the control of the promoter for the motor neuron (MN)-specific transcription factor HB9 (HB9:GFP cells) ([Di Giorgio et al., 2007]). We used the SOD1^G93A mESC line to derive GFP^+ MNs.\n(§4) Motor neuron differentiation was induced as described previously with some modifications ([Wichterle et al., 2002]). Cells were cultured in ADFNB medium composed of advanced D-MEM/F12:Neurobasal (1:1), 0.1 mM 2-mercaptoethanol, and GlutaMAX supplement, B27 supplement, and N2 supplement all from Invitrogen, to form embryoid bodies (EBs), and supplemented with 0.1 μM of retinoic acid (RA, Sigma), as well as 0.5 μM of sonic hedgehog (Shh) agonist Ag1.3 (Curis) every second day.\nFor an in vitro differentiation assay, EBs were enzymatically dissociated after 7 days in culture with TrypLE Express (Gibco) and seeded on 0.01% poly-l-ornithine (Sigma) pre-coated coverslips followed by laminin (10 μg/ml, Sigma). […]\nSOD1^G93A-expressing mESC-derived MNs were incubated with the indicated concentrations of (1-20)N-Ter-Antp peptide for 1–4 days following initiation of final differentiation. […] GFP fluorescence indicates the expression of the motor neuron-specific transcription factor HB9. […] (E) Quantification of MNs survival. For all assays, results are expressed as the mean ± SEM (n = 3). ^*P < 0.05."}, "[6]": {"system": "SOD1^G93A-expressing mESC-derived MNs", "test": "Survival of mESC-derived motor neurons", "format": "cell-based, mouse", "protocol": "as §3, §4\nFor an in vitro differentiation assay, EBs were enzymatically dissociated after 7 days in culture with TrypLE Express (Gibco) and seeded on 0.01% poly-l-ornithine (Sigma) pre-coated coverslips followed by laminin (10 μg/ml, Sigma). Cells (5 × 10^4) were seeded on coverslip in 24-well plates with ADFNB cell medium supplemented with of Ciliary neurotrophic factor (10 ng/ml, CNTF) and Glial cell-derived neurotrophic factor (GDNF; Miltenyi Biotec). During plating, 1-20N-Ter-Antp VDAC1-peptide was added to the cultures. Half of the medium was replaced with fresh medium every second day and at the indicated time points. The cultures were fixed in 4% paraformaldehyde in PBS.\nStereological estimation of neurite lengths to evaluate neurite outgrowth in cultured cells was carried out as described previously ([Ronn et al., 2000]). The total neuritic length per cell was estimated by counting the number of GFP^+ soma and neurite intersections with test lines of an unbiased counting frame superimposed on images of cell cultures obtained using a 20× objective (NA 0.75) of a Nikon Eclipse E800 epifluorescence microscope equipped with a Nikon DXM1200F CCD camera. The absolute length, L, of neurites per cell was subsequently estimated from the number of neurite intersections, I, per cell by means of the equation L = (πd/2)I describing the relationship between the number of neurite intersections and the vertical distance, d, between the test lines used.\nSOD1^G93A-expressing mESC-derived MNs were incubated with the indicated concentrations of (1-20)N-Ter-Antp peptide for 1–4 days following initiation of final differentiation. […] Scale bar, 100 μm. […] GFP fluorescence indicates the expression of the motor neuron-specific transcription factor HB9. Gross cellular morphology of surviving MNs remained unaffected by the (1-20)N-Ter-Antp peptide. Scale bar, 25 μm. (E) Quantification of MNs survival. For all assays, results are expressed as the mean ± SEM (n = 3). ^*P < 0.05."}}, "data": [{"substance": "1-MAVPPTYADLGKSARDVFTK-20-RQIKIWFQNRRMKWKK [(1-20)-N-Ter-Antp, like (1-26)-N-Ter-Antp but shortened by six amino acids at the C-terminus]", "values": [{"measurement": "Cell death induction in NSC-34 cells", "setting": "[1]", "value": "could not induce cell death"}, {"measurement": "Cell death induction in U-87MG cells", "setting": "[2]", "value": "could not induce cell death"}, {"measurement": "Cell death induction in A549 cells", "setting": "[3]", "value": "could not induce cell death"}, {"measurement": "Effect on SOD1^G93A toxicity (cell viability)", "setting": "[4]", "value": "reduced the toxic effect of SOD1^G93A in a concentration-dependent manner"}, {"measurement": "MN neurite outgrowth", "setting": "[5]", "value": "significantly increased MN neurite outgrowth"}, {"measurement": "improvement of survival of SOD1^G93A-expressing MNs (fold)", "setting": "[6]; 10 μM, 96 h", "value": "twofold"}, {"measurement": "number of surviving MNs over the course of final differentiation", "setting": "[6]; 10 μM, 96 h, n = 3, P < 0.05", "value": "significantly increased the number of surviving MNs"}, {"measurement": "number of MNs present in the culture", "setting": "[6]; 5 and 10 μM, 24 h after initiation of differentiation, n = 3, P < 0.05", "value": "significantly increased the number of MNs present in the culture"}, {"measurement": "optimal peptide concentration for neurite outgrowth and survival", "setting": "[6]; SOD1^G93A-expressing mESC-derived MNs", "value": 10, "unit": "µM"}]}]}
